From patent publication US20220016127A1, “COMPOSITIONS AND METHODS FOR INDUCING APPENDAGE AND LIMB REGENERATION” (priority 2020, published 2022)
“And” between values parts separate entries of the source, which are not always exact repeats. Identical values can stand only once.

Key:
Aurelia ephyra [1] = test: Arm regeneration induction in amputated Aurelia ephyrae; format: in vivo, Aurelia aurita; settings: for effect on arm regeneration / regeneration frequency (in words): amputated ephyrae, factor added to artificial seawater upon amputation; for Percent regeneration, Average: average over experiments; for Effect size, Length of arm regenerates: Response Ratio treated vs control (Table 7); for Average effect size: Risk Ratio of regeneration frequency, across experiments (Table 4); for Average effect size / Odds Ratio: treated vs control; for Effect size, % ephyrae regenerating / Effect size, % ephyrae regenerating >1 arm / Effect size, % ephyrae regenerating rhopalia: Risk Ratio treated vs control (Table 7); for Odds Ratio: odds of regeneration, across experiments (Table 6)
Method: Amputation. Strobilated ephyrae were fed daily with rotifers (Brachionus plicatilis) until amputation time. 2-3 days old ephyrae were anesthetized in 400 μM menthol and amputated using a razor blade mounted on an x-acto knife handle. After amputation, ephyrae were let to recover in bubbler cones (FIG. 7). Regeneration was assessed at various times until 1-2 weeks after amputation, before onset of maturation to medusa.
Inducing regeneration. Experimental setup. 0.5-1 L sand settling cones were repurposed as jellyfish aquaria (Nalgene Imhoff; FIG. 7). Each cone was equipped with an airline from a Tetra Whisper air pump 100 to create a gentle vertical current (˜1 bubble/sec, see FIG. 30). The conical geometry eliminates stagnant spots, where the ephyrae could get stuck. In this “bubbler cone” setup, the ephyrae were continually in water current either in the upward air bubble-generated current or the downward self-generated current. 500 mL artificial seawater and 30 ephyrae were placed in each cone to avoid crowding and fouling. Artificial seawater was changed every week. Nutrients. In some embodiments, the food amount given here only serves as an initial estimate; percentage of regeneration can easily vary with lab culture condition (e.g., polyp and rotifer size, age, health), as well as subject to variation across polyps and strobilation batches (see Table 2A-Table 2C for a sense of the variation). Amputated ephyrae were fed daily with rotifers. The number of rotifers administered daily was estimated using a 6-well plate fitted with STEMgrid™ (the same principle as using a hemocytometer). In some embodiments, low food is ˜100-200 rotifers/ephyra, whereas high food is ˜400 rotifers/ephyra. Insulin. Human recombinant insulin was administered to the amputated ephyrae at 500 nM immediately after amputation (by mixing in the artificial seawater). If the experiment proceeds longer than a week, fresh insulin was added at the one-week time point. Hypoxia. Nitrogen or argon flow, instead of ambient air flow, was introduced via the airline into the bubbler cone immediately after amputation, and maintained throughout the duration of the experiment. The nitrogen flow was adjusted to achieve 50% reduction in the dissolved oxygen level.
Inhibiting or activating mTOR. 1 nM Sapanisertib (Selleck Chemicals S2811), 1 μM A769662 (Santa Cruz sc-203790), or 100 μM L-leucine (Sigma L1002, the cell-permeable methyl ester hydrochloride form) was administered into the artificial seawater right after amputation, and refreshed weekly. Statistical analysis. Percent regeneration was first normalized to the control (for sapanisertib and A769662, the HF+DMSO control; for leucine data the LF control), and then the student's t-test (two tailed, equal variances) in Excel was used to test the null hypothesis that the fold change in % regeneration is zero. Drosophila melanogaster
Amputation. Strobilated ephyrae were fed daily with rotifers (Brachionus plicatilis, Reed Mariculture) until amputation time. 2-3 days old ephyrae were anesthetized in 400 μM menthol and amputated using a razor blade mounted on an x-acto knife handle. After amputation, ephyrae were let to recover in bubbler cones (FIG. 21). Regeneration was assessed at various times for 1-2 weeks after amputation, before onset of maturation to medusa. Experiment in the original habitat. The polyp population in the study arose from parental polyps collected off the coast of Long Beach, Calif. (33° 46′04.2″N 118° 07′44.2″W, GPS: 33.7678376,−118.1289559). Ephyrae were amputated in location and immediately after submersed in the ocean. For submerging the amputated ephyrae in the ocean, a two-layered aquarium was custom-built. Ephyrae were placed in plastic canisters with a 7 cm diameter hole cut in the lid and covered with a 250 μm plastic screen. The canisters were then placed in a thick plastic tank fitted with a 500 μm plastic screen on top. […]

Aurelia ephyra [2] = test: Body size (growth) of amputated Aurelia ephyrae; format: in vivo, Aurelia aurita; settings: Response Ratio across experiments (Table 8)
Method: Two-to-three-day-old ephyrae were anesthetized in 400 μM menthol and amputated using a razor blade mounted on an x-acto knife handle. Amputated ephyrae were let to recover in 1 L sand settling cones (Nalgene Imhoff, FIG. 21). In each experiment, ˜90 animals were amputated for each condition (e.g., 90 animals for control and 90 animals for treated). Because of the varying baseline across strobilation batches, each experiment was repeated across 2-5 strobilation batches (biological replicates). These sample sizes were chosen to obtain a 95% confidence level on the treatment effect (statistical analysis described below). Hundreds of experimental animals were first amputated, mixed together in a beaker, and then randomly allocated to the control or treatment groups. Regeneration was assessed at various times for 1-2 weeks after amputation, before onset of maturation to medusa. All data were included in the analysis.
For measurements of arm length and body size, the datasets are in the form of continuous variables. For such data, the commonly used effect size is the Response Ratio (R, EQUATION 3),
R evaluates the proportionate change that results from a treatment, and is the meaningful effect size to use when the outcome of a treatment is measured on a physical scale, e.g., length or area (as opposed to arbitrary scale, e.g., happiness level). […]

Drosophila limb = test: Tibia (hindlimb) regeneration in amputated adult Drosophila; format: in vivo, Drosophila melanogaster; settings: adult flies, fed in food
Method: Amputation. Adult flies 2-7 days after eclosion were anesthetized with CO2. Amputations were performed under a dissection microscope using a spring scissors (Fine Science Tools, 91500-09) and superfine dissecting forceps (VWR, 82027-402). Recovering Drosophila were fed with standard fly food (control) or standard fly food supplemented with 2 mM L-leucine (Sigma L8000), 2 mM L-Glutamine (Sigma G3126), and 0.1 mg/mL insulin (MP Biomedicals 0219390080) or other molecular factors. To introduce molecular factors into fly food, standard fly food was microwaved in short pulses, such that the topmost layer of the food was liquified. Molecular factors in aqueous medium were then pipetted into this liquified layer. Food was allowed to re-set at 4° C. for at least 20 minutes. New food was prepared fresh every 2 days throughout the course of the 2-week experiment. Regeneration was assessed at 3, 6, 9 and 14 days post amputation.
Drosophila were amputated on the hindlimb, across the fourth segment of the leg, the tibia (FIG. 16A-FIG. 16C). The amputation removed the distal half to third of the tibia and all tarsal segments. […] Regeneration was assessed between 7-21 dpa as the presence of a regrown tibia with a reformed distal joint (FIG. 16E). […]

Aurelia ephyra [3] = test: Arm regeneration induction in amputated Aurelia ephyrae; format: in vivo, Aurelia aurita; settings: low food (LF) background; single experiments; arm regeneration 1-2 weeks after amputation; insulin 500 nM, L-leucine 100 μM / 100 mM, nitrogen flow ~50% reduction in oxygen
[4] = high food (HF) background, single experiments, insulin 500 nM, 1 nM sapanisertib, 1 μM A769662 (controls HF + DMSO), nitrogen or argon flow ~50% reduction in oxygen

Compound: N#Cc1c(O)c2c(-c3ccc(-c4ccccc4O)cc3)csc2[nH]c1=O [A769662, reference compound]
- effect on arm regeneration / regeneration frequency (in words) (Aurelia ephyra [1]): inhibited arm regeneration
- Percent regeneration, Average (Aurelia ephyra [1]; high food (HF) background): 8.3%
- Percent regeneration (Aurelia ephyra [1]; [4]): 9.8% and 7.0%

Compound: CC(C)C[C@H](N)C(=O)O [Leucine, L-leucine]
- Effect size, Length of arm regenerates (Aurelia ephyra [1]): 1.7
- Average effect size (Aurelia ephyra [1]): 4.1
- Effect size, % ephyrae regenerating (Aurelia ephyra [1]): 4.1
- Effect size, % ephyrae regenerating >1 arm (Aurelia ephyra [1]): 6.0
- Effect size, % ephyrae regenerating rhopalia (Aurelia ephyra [1]): 6.1
- effect on arm regeneration / regeneration frequency (in words) (Aurelia ephyra [1]): induced arm regeneration
- Percent regeneration, Average (Aurelia ephyra [1]; low food (LF) background): 23.0%
- Odds Ratio (Aurelia ephyra [1]): 5.8
- Ave. body diameter treatment/control (Aurelia ephyra [2]): 1.1
- effect on tibia regrowth (in words) (Drosophila limb): can by itself effect tibia regrowth

Compound: CC(C)n1nc(-c2ccc3oc(N)nc3c2)c2c(N)ncnc21 [Sap, Sapanisertib, reference compound]
- Percent regeneration, Average (Aurelia ephyra [1]; high food (HF) background): 11.5%

Compound: [Ar] [argon]
- effect on arm regeneration / regeneration frequency (in words) (Aurelia ephyra [1]): dramatically induced regeneration
- Percent regeneration (Aurelia ephyra [1]; [4]): 72.5%

Compound: N#N [nitrogen]
- Percent regeneration (Aurelia ephyra [3]): 32.5%
- Percent regeneration (Aurelia ephyra [1]; LF* background, single experiment, nitrogen flow): 28.4%
- Percent regeneration, Average (Aurelia ephyra [1]; high food (HF) background): 69.3%
- Percent regeneration (Aurelia ephyra [1]; [4]): 82.1% and 56.9%
- Percent regeneration, Average (Aurelia ephyra [1]; low food (LF) background): 30.6%

Compound: Insulin: human recombinant insulin (Sigma I0908), 500 nM in artificial seawater
- Percent regeneration (Aurelia ephyra [3]): 25%
- Effect size, Length of arm regenerates (Aurelia ephyra [1]): 1.2
- Average effect size (Aurelia ephyra [1]): 2.4
- Effect size, % ephyrae regenerating (Aurelia ephyra [1]): 2.4
- Effect size, % ephyrae regenerating >1 arm (Aurelia ephyra [1]): 1.9
- Effect size, % ephyrae regenerating rhopalia (Aurelia ephyra [1]): 1.3
- Percent regeneration (Aurelia ephyra [1]; [4]): 36.4%
- Odds Ratio (Aurelia ephyra [1]): 5.0
- Ave. body diameter treatment/control (Aurelia ephyra [2]): 1.4

Compound: Tgfb: protein tested in the screen (hTGF-β1, Peprotech 100-21)
- effect on arm regeneration / regeneration frequency (in words) (Aurelia ephyra [1]): no effect
